Reference: patent US11046680B1, “Heteroaryl-substituted triazoles as APJ receptor agonists” (priority 2016, dated 2021)

Each compound was assayed against human APJ receptor (Homo sapiens (Human), UniProt P35414) (assay: biochemical). Conditions: [35S]GTPγS binding, CHO membranes expressing human APJ receptor; read-out: Activity hAPJ SPA EC50 IP.
Sequence of human APJ receptor (P35414 whole entry): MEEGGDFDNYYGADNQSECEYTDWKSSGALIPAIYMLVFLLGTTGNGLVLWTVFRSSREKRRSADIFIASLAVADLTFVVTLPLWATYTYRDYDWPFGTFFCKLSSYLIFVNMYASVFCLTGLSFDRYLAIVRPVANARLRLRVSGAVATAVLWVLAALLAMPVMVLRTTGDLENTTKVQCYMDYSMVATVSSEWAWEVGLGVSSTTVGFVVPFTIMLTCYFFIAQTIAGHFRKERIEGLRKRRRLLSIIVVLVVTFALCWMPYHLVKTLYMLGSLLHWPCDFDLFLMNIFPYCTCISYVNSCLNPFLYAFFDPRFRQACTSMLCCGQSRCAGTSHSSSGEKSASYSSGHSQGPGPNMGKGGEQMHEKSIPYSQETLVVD
Type: biochemical
Summary of the method: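 GTPγS binding on membranes from CHO cells stably expressing FLAG-tagged human APJ, with optimized GDP, MgCl2 and NaCl; incubated 90 min at RT before imaging read-out.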
`COc1cccc(OC)c1-n1c(NS(=O)(=O)[C@@H](C)[C@H](OC)c2ncc(Cl)cn2)nnc1-c1noc(C)c1C` [Example 515.0, (1R,2S)-1-(5-chloropyrimidin-2-yl)-N-(4-(2,6-dimethoxyphenyl)-5-(4,5-dimethylisoxazol-3-yl)-4H-1,2,4-triazol-3-yl)-1-methoxypropane-2-sulfonamide] was tested, and the EC50 was 0.93 nM.
With `COC[C@H](C)n1c(NS(=O)(=O)[C@@H](C)[C@H](C)c2ncc(Cl)cn2)nnc1-c1ccn(C)n1` [Example 533.0, (2S,3R)-3-(5-chloro-2-pyrimidinyl)-N-(4-((2S)-1-methoxy-2-propanyl)-5-(1-methyl-1H-pyrazol-3-yl)-4H-1,2,4-triazol-3-yl)-2-butanesulfonamide] the EC50 was 110 nM.
`COc1cccc(OC)c1-n1c(NS(=O)(=O)[C@@H](C)[C@H](OC)c2ncc(Cl)cn2)nnc1-c1cc(C)on1` [Example 496.0, (1R,2S)-1-(5-chloropyrimidin-2-yl)-N-(4-(2,6-dimethoxyphenyl)-5-(5-methylisoxazol-3-yl)-4H-1,2,4-triazol-3-yl)-1-methoxypropane-2-sulfonamide] was tested, and the EC50 was 0.62 nM.
`COc1cccc(OC)c1-n1c(NS(=O)(=O)CC[C@@H](O)C2CCCC2)nnc1-c1cccs1` (mixture of isomers) [Example 362.0, (R)-3-Cyclopentyl-N-(4-(2,6-dimethoxyphenyl)-5-(thiophen-2-yl)-4H-1,2,4-triazol-3-yl)-3-hydroxypropane-1-sulfonamide and (S)-3-cyclopentyl-N-(4-(2,6-dimethoxyphenyl)-5-(thiophen-2-yl)-4H-1,2,4-triazol-3-yl)-3-hydroxypropane-1-sulfonamide] gave an EC50 of 3 nM.
For `COc1cccc(OC)c1-n1c(NS(=O)(=O)[C@@H](C)[C@H](OC)c2ncc(C)cn2)nnc1-c1cnn2c1CCC2` [Example 444.0, (1R,2S)-N-(5-(5,6-dihydro-4H-pyrrolo[1,2-b]pyrazol-3-yl)-4-(2,6-dimethoxyphenyl)-4H-1,2,4-triazol-3-yl)-1-methoxy-1-(5-methylpyrimidin-2-yl)propane-2-sulfonamide], the EC50 was 1.2 nM.
With `COc1ccc(N2CCC2=O)cc1-n1c(NS(=O)(=O)CCc2ccc(F)cc2)nnc1-c1cccs1` [Example 130.0, 2-(4-Fluorophenyl)-N-(4-(2-methoxy-5-(2-oxo-1-azetidinyl)phenyl)-5-(2-thiophenyl)-4H-1,2,4-triazol-3-yl)ethanesulfonamide] the EC50 was 3.5 nM.
With `COc1cccc(OC)c1-n1c(NS(=O)(=O)[C@@H](C)[C@H](OC)c2ncc(C)cn2)nnc1-c1cc2n(n1)CCC2` [Example 205.0, (1R,2S)-N-(5-(5,6-dihydro-4H-pyrrolo[1,2-b]pyrazol-2-yl)-4-(2,6-dimethoxyphenyl)-4H-1,2,4-triazol-3-yl)-1-methoxy-1-(5-methyl-2-pyrimidinyl)-2-propanesulfonamide] the EC50 was 3 nM.
Compound “(R)-N-(4-(2,6-dimethoxyphenyl)-5-(1,5-dimethyl-1H-pyrazol-3-yl)-4H-1,2,4-triazol-3-yl)-1-(5-fluoropyrimidin-2-yl)propane-2-sulfonamide and (S)-N-(4-(2,6-dimethoxyphenyl)-5-(1,5-dimethyl-1H-pyrazol-3-yl)-4H-1,2,4-triazol-3-yl)-1-(5-fluoropyrimidin-2-yl)propane-2-sulfonamide [Example 54.0]” has an EC50 of 33 nM.
`COc1cccc(OC)c1-n1c(NS(=O)(=O)C[C@H](OC)c2ccc(Cl)cn2)nnc1-c1ccn(C)n1` (single isomer, unassigned) [Example 377.0, (R)-2-(5-Chloropyridin-2-yl)-N-(4-(2,6-dimethoxyphenyl)-5-(1-methyl-1H-pyrazol-3-yl)-4H-1,2,4-triazol-3-yl)-2-methoxyethanesulfonamide or (S)-2-(5-chloropyridin-2-yl)-N-(4-(2,6-dimethoxyphenyl)-5-(1-methyl-1H-pyrazol-3-yl)-4H-1,2,4-triazol-3-yl)-2-methoxyethanesulfonamide] gave an EC50 of 0.6 nM.
